Like-named read-outs stand apart in the source and are kept apart here.
Tests used:
VEGFR2 kinase = biological target: T1, VEGFR2 kinase (Homo sapiens, UniProt P35968); test: VEGFR2 kinase assay; type: biochemical; conditions: 6 μM ATP, 1 mM MnCl2; rounded to 1 significant figure
T1 construct: purchased Cell Signaling Technology
Outline: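 VEGFR2 phosphorylates CSKtide with 6 μM ATP and 1 mM MnCl2 for 1 hr, otherwise following the Aurora A kinase protocol. Detection by IMAP fluorescence polarization, binding reagent diluted 1:1200 in 1:1 binding buffer A/B. Run in duplicate with solvent control.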

Aurora B kinase = biological target: T2, Aurora B kinase (Homo sapiens, UniProt Q96GD4); test: Aurora B kinase assay (IMAP fluorescence polarization); type: biochemical; conditions: 10 μM ATP; rounded to 1 significant figure; read-out: Aur-B IC50
T2 construct: purchased BPS Bioscience
T2 sequence (Q96GD4 whole entry): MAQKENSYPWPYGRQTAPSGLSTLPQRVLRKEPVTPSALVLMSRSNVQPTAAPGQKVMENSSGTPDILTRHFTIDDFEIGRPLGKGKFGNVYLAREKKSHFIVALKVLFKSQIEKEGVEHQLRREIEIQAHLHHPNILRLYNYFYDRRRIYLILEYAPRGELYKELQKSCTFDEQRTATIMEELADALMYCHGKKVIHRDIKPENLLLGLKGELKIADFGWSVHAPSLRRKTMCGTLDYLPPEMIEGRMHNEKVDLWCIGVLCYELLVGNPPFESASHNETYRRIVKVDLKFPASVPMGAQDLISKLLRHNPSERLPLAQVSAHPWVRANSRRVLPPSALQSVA
Outline: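 Reaction started with 100 nM fluorescein-labelled PKAtide and 10 μM ATP, run 45 min at room temperature, then stopped with IMAP binding reagent (1:400). After 30 min shaking at room temperature, fluorescence polarization read; run in duplicate with solvent control.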

[1] = tested on: HUVEC-2 (human umbilical vein endothelial cells); test: HUVEC VEGF-dependent proliferation assay (BrdU); type: cell-based; conditions: read-out: HUVEC IC50
Outline: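 HUVEC-2 cells on gelatin got serially diluted compound (0.5% DMSO final), and VEGF (25 ng/mL) was added 2 hr later. BrdU (10 μM) went in after one day, with labelling for another day. VEGF-dependent proliferation was read by BrdU detection, in triplicate.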

[2] = tested on: HCT116 (human colon carcinoma) cells; test: HCT116 cytotoxicity assay (CellTiter-Glo); type: cell-based; conditions: HCT-116, 72 h, read-out: HCT116 IC50
p-H3 in HCT116 cells = test: Histone phosphorylation (p-H3) assay; type: cell-based; conditions: Homo sapiens, read-out: p-H3 IC50
Outline: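 HCT116 cells (2.5×10^4/well, attached overnight) treated 4 h with 8-point 3-fold compound dilutions at 0.5% DMSO. Lysates dot-blotted onto nitrocellulose and probed for p-H3 with β-actin on the same membrane, fluorescent secondary antibodies, Odyssey scan; duplicate wells.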

[3] = tested on: HL60 (human promyelocytic leukemia) cells; test: HL60 cytotoxicity assay (CellTiter-Glo); type: cell-based; conditions: HL-60, 72 h, read-out: HL60 IC50
Aurora A kinase = biological target: T3, Aurora A kinase (Homo sapiens, UniProt O14965); test: Aurora A kinase assay (IMAP fluorescence polarization); type: biochemical; conditions: 10 μM ATP; rounded to 1 significant figure; read-out: Aur-A IC50
T3 construct: purchased Upstate Biotech
T3 sequence (O14965 1-403): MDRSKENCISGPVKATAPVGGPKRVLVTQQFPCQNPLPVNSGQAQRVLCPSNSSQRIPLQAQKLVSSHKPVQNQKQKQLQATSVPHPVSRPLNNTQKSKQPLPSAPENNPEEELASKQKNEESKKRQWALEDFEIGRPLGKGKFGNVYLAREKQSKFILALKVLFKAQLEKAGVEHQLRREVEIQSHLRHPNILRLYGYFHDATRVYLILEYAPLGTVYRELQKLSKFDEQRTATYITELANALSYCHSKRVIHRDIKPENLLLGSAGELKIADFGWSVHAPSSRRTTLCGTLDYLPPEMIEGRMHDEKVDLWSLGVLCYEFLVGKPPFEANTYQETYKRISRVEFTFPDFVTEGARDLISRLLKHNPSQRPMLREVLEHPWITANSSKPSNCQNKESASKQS
Outline: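 Compounds (eight 3-fold dilutions, 2.5% DMSO final) were preincubated 5 min at room temperature with Aurora A kinase in buffer with 1 mM DTT. Reaction with 100 nM fluorescein-PKAtide and 10 μM ATP ran 45 min at room temperature, then was stopped with IMAP binding reagent; fluorescence polarization was read after 30 min.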

[4] = VEGF (25 ng/mL)-dependent proliferation
[5] = cytotoxicity, three days culture
[6] = HCT-116, HCT116 cells, 4 hr incubation

T1 sequence (P35968 20-1356): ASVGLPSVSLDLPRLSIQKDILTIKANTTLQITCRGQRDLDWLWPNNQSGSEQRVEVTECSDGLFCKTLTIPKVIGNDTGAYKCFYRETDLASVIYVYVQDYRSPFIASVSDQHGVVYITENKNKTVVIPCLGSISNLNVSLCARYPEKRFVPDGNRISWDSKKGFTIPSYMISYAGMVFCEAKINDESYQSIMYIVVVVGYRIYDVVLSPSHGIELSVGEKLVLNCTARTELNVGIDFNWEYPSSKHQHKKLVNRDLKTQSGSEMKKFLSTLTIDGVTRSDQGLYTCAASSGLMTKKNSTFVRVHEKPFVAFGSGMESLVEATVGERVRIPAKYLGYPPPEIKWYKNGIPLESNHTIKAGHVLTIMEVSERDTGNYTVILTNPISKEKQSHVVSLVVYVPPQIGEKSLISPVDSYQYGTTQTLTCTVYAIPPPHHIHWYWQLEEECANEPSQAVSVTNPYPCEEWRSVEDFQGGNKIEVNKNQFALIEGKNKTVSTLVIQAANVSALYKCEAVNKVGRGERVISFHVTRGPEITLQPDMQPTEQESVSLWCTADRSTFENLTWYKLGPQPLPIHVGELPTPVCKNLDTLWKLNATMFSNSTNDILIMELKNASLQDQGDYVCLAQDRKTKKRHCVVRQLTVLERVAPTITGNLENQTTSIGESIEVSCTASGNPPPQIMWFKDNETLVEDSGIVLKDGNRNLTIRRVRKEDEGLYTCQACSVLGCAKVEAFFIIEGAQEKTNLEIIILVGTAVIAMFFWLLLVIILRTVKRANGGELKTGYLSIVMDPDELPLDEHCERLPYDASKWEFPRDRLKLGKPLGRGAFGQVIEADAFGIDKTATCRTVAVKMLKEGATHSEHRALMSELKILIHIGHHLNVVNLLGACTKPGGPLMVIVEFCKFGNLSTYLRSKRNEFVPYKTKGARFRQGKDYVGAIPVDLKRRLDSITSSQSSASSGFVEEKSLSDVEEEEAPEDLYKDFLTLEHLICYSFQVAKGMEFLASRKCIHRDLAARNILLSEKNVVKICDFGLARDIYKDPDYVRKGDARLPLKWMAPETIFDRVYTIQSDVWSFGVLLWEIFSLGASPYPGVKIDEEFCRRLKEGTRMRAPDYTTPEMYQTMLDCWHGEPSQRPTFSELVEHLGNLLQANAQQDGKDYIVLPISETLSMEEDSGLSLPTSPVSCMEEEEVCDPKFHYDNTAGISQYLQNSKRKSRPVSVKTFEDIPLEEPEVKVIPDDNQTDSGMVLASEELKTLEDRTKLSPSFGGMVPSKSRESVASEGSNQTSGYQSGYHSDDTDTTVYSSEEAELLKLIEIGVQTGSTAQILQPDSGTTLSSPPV

| Structure (SMILES) | IC50 (VEGFR2 kinase) [nM] | IC50 (Aurora B kinase) [nM] | IC50 (p-H3 in HCT116 cells; [6]) [nM] | IC50 (Aurora A kinase) [nM] | IC50 [1, 4] [nM] | IC50 [2, 5] [nM] | IC50 [3, 5] [nM] | IC50 [1] [nM] | IC50 [2] [nM] | IC50 (p-H3 in HCT116 cells; HCT-116, 4 h) [nM] | IC50 [3] [nM] |
| --- | --- | --- | --- | --- | --- | --- | --- | --- | --- | --- | --- |
| CN(C)CC(=O)Nc1ccc2c(c1)N/C(=C(/C(N)=O)c1nccc(C(F)(F)F)n1)N2 [Compound 73A] | 6 | 5 | 100 | 10 | 100 | 200 | 200 | – | – | – | – |
| CN(C)CC(=O)Nc1ccc2c(c1)S/C(=C(/C(N)=O)c1nccc(C(F)(F)F)n1)N2 [Compound 74A] | 20 | 10 | 200 | 20 | 80 | 300 | 40 | – | – | – | – |
| CN1CCC[C@H]1C(=O)Nc1ccc2c(c1)S/C(=C(/C(N)=O)c1nccc(C(F)(F)F)n1)N2 [Compound 78A] | 50 | 40 | 600 | 60 | 400 | 2000 | 1000 | – | – | – | – |
| CC(C)(N)C(=O)Nc1ccc2c(c1)N/C(=C(/C(N)=O)c1nccc(C(F)(F)F)n1)N2 [Compound 81A] | 9 | 7 | 90 | 6 | 80 | 300 | 200 | – | – | – | – |
| NC(=O)/C(=C1\Nc2ccc(NC(=O)Cn3ccnc3)cc2N1)c1nccc(C(F)(F)F)n1 [Compound 86A] | 30 | 8 | 200 | 4 | 30 | 400 | 800 | – | – | – | – |
| NC(=O)/C(=C1\Nc2ccc(NC(=O)CCn3ccnc3)cc2N1)c1nccc(C(F)(F)F)n1 [Compound 87A] | 10 | 9 | 200 | 8 | 90 | 200 | 100 | – | – | – | – |
| NC(=O)/C(=C1\Nc2ccc(Cn3ccnc3)cc2S1)c1nccc(C(F)(F)F)n1 [Compound 89A] | 6 | 5 | 100 | 5 | 80 | 500 | 700 | – | – | – | – |
| NC(=O)/C(=C1\Nc2ccc(CN3CCNCC3)cc2S1)c1nccc(C(F)(F)F)n1 [Compound 94A] | 10 | 7 | 80 | 7 | 50 | 200 | 100 | – | – | – | – |
| NC(=O)/C(=C1\Nc2ccc(CCN3CCS(=O)(=O)CC3)cc2S1)c1nccc(C(F)(F)F)n1 [Compound 100A] | 10 | 9 | 300 | 5 | 20 | 400 | 90 | – | – | – | – |
| NC(=O)/C(=C1\Nc2ccc(CCN3CCSCC3)cc2S1)c1nccc(C(F)(F)F)n1 [Compound 103A] | 20 | 10 | 2000 | 20 | 100 | 2000 | 100 | – | – | – | – |
| NC(=O)/C(=C1\Nc2ccc(CC(=O)NCCCN3CCOCC3)cc2S1)c1nccc(C(F)(F)F)n1 [Compound 110A] | 20 | 20 | – | 50 | – | – | – | 80 | 200 | 200 | 800 |
| NC(=O)/C(=C1\Nc2ccc(S(=O)(=O)NCCCN3CCOCC3)cc2S1)c1nccc(C(F)(F)F)n1 [Compound 127A] | 20 | 6 | 200 | 20 | 40 | 600 | 500 | – | – | – | – |
| CN1CCC(C(=O)Nc2ccc3c(c2)N/C(=C(/C(N)=O)c2nccc(C(F)(F)F)n2)N3)CC1 [Compound 140A] | 20 | 9 | 400 | 6 | 20 | 400 | 300 | – | – | – | – |

Continued by falling IC50 (VEGFR2 kinase), values first:

| IC50 (VEGFR2 kinase) [nM] | IC50 (Aurora B kinase) [nM] | IC50 (p-H3 in HCT116 cells; [6]) [nM] | IC50 (Aurora A kinase) [nM] | Structure (SMILES) | IC50 [1, 4] [nM] | IC50 [2, 5] [nM] | IC50 [3, 5] [nM] | IC50 [1] [nM] | IC50 [2] [nM] | IC50 (p-H3 in HCT116 cells; HCT-116, 4 h) [nM] | IC50 [3] [nM] |
| --- | --- | --- | --- | --- | --- | --- | --- | --- | --- | --- | --- |
| 100 | 10 | 4000 | 40 | NC(=O)/C(=C1\Nc2ccc(Oc3cccnc3)cc2S1)c1nccc(C(F)(F)F)n1 [Compound 118A] | 200 | 2000 | 300 | – | – | – | – |
| 20 | 9 | 100 | 7 | NC(=O)/C(=C1\Nc2ccc(NC(=O)CCN3CCOCC3)cc2N1)c1nccc(C(F)(F)F)n1 [Compound 84A] | 60 | 200 | 100 | – | – | – | – |
| 20 | 8 | 60 | 4 | NC(=O)/C(=C1\Nc2cc(NC(=O)Cn3ccnc3)ccc2S1)c1nccc(C(F)(F)F)n1 [Compound 88A] | 300 | 300 | 100 | – | – | – | – |
| 10 | 10 | 400 | 6 | NC(=O)/C(=C1\Nc2ccc(C(=O)NCCN3CCOCC3)cc2S1)c1nccc(C(F)(F)F)n1 [Compound 54A] | 30 | 400 | 300 | – | – | – | – |
| 10 | 20 | 400 | 20 | NC(=O)/C(=C1\Nc2ccc(NC(=O)[C@H]3CCCN3)cc2N1)c1nccc(C(F)(F)F)n1 [Compound 79A] | 40 | 100 | 300 | – | – | – | – |
| 4 | 10 | 30 | 20 | NC(=O)/C(=C1\Nc2ccc(C(=O)N3CCNCC3)cc2S1)c1nccc(C(F)(F)F)n1 [Compound 61A] | 20 | 100 | 200 | – | – | – | – |
| 4 | 9 | 70 | 4 | NC(=O)/C(=C1\Nc2ccc(Cn3ccnc3)cc2N1)c1nccc(C(F)(F)F)n1 [Compound 90A] | 90 | 200 | 100 | – | – | – | – |

Reference: US8129396B2, “2-[1H-benzimidazol-2(3H)-ylidene]-2-(pyrimidin-2-yl)acetamides and 2-[benzothiazol-2(3H)-ylidene]-2-(pyrimidin-2-yl)acetamides as kinase inhibitors” (Telik, Inc., priority 2008, dated 2012)
